Test system: 282377-053-R-J1-PDC complex spheroids, viability
Assay: Anticancer human tumor 282377-053-R-J1-PDC patient-derived colon adenocarcinoma cell line growth inhibition [GQUAD]
Details: for IC50: curve of first compound; for viability, T/C: stronger effect = lower value
In short: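 Multi-cell-type spheroids of tumor cells with HUVEC and mesenchymal stem cells, treated with drug combinations. Concentrations descend in half-log steps from near clinical Cmax, or from 10 microM where Cmax is unknown; viability read-out.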

[1] = second compound 0.0316 µM, first compound 0.0316 µM
[2] = second compound 0.0316 µM, first compound 0.1 µM
[3] = second compound 0.0316 µM, first compound 0.316 µM
[4] = second compound 0.0316 µM, first compound 1 µM
[5] = second compound 0.0316 µM, first compound 3.16 µM
[6] = second compound 0.0316 µM, first compound 10 µM
[7] = second compound 0.1 µM, first compound 0.0316 µM
[8] = second compound 0.1 µM, first compound 0.1 µM
[9] = second compound 0.1 µM, first compound 0.316 µM
[10] = second compound 0.1 µM, first compound 1 µM
[11] = second compound 0.1 µM, first compound 3.16 µM
[12] = second compound 0.1 µM, first compound 10 µM
[13] = second compound 0.316 µM, first compound 0.0316 µM
[14] = second compound 0.316 µM, first compound 0.1 µM
[15] = second compound 0.316 µM, first compound 0.316 µM
[16] = second compound 0.316 µM, first compound 1 µM
[17] = second compound 0.316 µM, first compound 3.16 µM
[18] = second compound 0.316 µM, first compound 10 µM
[19] = second compound 1 µM, first compound 0.0316 µM
[20] = second compound 1 µM, first compound 0.1 µM
[21] = second compound 1 µM, first compound 0.316 µM
[22] = second compound 1 µM, first compound 1 µM
[23] = second compound 1 µM, first compound 3.16 µM
[24] = second compound 1 µM, first compound 10 µM
[25] = second compound 3.16 µM, first compound 0.0316 µM
[26] = second compound 3.16 µM, first compound 0.1 µM
[27] = second compound 3.16 µM, first compound 0.316 µM
[28] = second compound 3.16 µM, first compound 1 µM
[29] = second compound 3.16 µM, first compound 3.16 µM
[30] = second compound 3.16 µM, first compound 10 µM
[31] = second compound 10 µM, first compound 0.0316 µM
[32] = second compound 10 µM, first compound 0.1 µM
[33] = second compound 10 µM, first compound 0.316 µM
[34] = second compound 10 µM, first compound 1 µM
[35] = second compound 10 µM, first compound 3.16 µM
[36] = second compound 10 µM, first compound 10 µM
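Also: spheroids exposed to compounds for 7 days before readout.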
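For viability, T/C in this document: percent of vehicle DMSO control viability with 100% = untreated-like growth.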

CC1COCCN1c1cc(-c2ccnn2C)c2ccnc(-c3ccn[nH]3)c2n1 (stereo not drawn) + Cc1[nH]c2ccc(F)cc2c1-c1nc2c3cccnc3c3ncccc3c2[nH]1
IC50 (second compound 0.0316 µM): 659 nM | IC50 (second compound 0.1 µM): 506 nM | IC50 (second compound 0.316 µM): 400 nM | IC50 (second compound 1 µM): 460 nM | IC50 (second compound 3.16 µM): 40 nM | IC50 (second compound 10 µM): < 31.6 nM | viability, T/C [1]: 83.8% | viability, T/C [2]: 82.6% | viability, T/C [3]: 73.3% | viability, T/C [4]: 36.4% | viability, T/C [5]: 27.5% | viability, T/C [6]: 20.9% | viability, T/C [7]: 79.3% | viability, T/C [8]: 85% | viability, T/C [9]: 56.5% | viability, T/C [10]: 37.3% | viability, T/C [11]: 24.2% | viability, T/C [12]: 19.7% | viability, T/C [13]: 103% | viability, T/C [14]: 77.5% | viability, T/C [15]: 49.4% | viability, T/C [16]: 37.7% | viability, T/C [17]: 30.5% | viability, T/C [18]: 17.6% | viability, T/C [19]: 87.2% | viability, T/C [20]: 79.3% | viability, T/C [21]: 59% | viability, T/C [22]: 31.9% | viability, T/C [23]: 21.5% | viability, T/C [24]: 18.8% | viability, T/C [25]: 52.9% | viability, T/C [26]: 38.6% | viability, T/C [27]: 12.8% | viability, T/C [28]: 8.91% | viability, T/C [29]: 4.88% | viability, T/C [30]: 4.03% | viability, T/C [31]: 35.6% | viability, T/C [32]: 23.9% | viability, T/C [33]: 9.76% | viability, T/C [34]: 5.71% | viability, T/C [35]: 3.51% | viability, T/C [36]: 2.86%

CC1COCCN1c1cc(C2(O)CC3CCC(C2)O3)c2cnn(-c3ccn[nH]3)c2n1 (stereo not drawn) + Cc1[nH]c2ccc(F)cc2c1-c1nc2c3cccnc3c3ncccc3c2[nH]1
IC50 (second compound 0.0316 µM): 626 nM | IC50 (second compound 0.1 µM): 509 nM | IC50 (second compound 0.316 µM): 293 nM | IC50 (second compound 1 µM): 248 nM | IC50 (second compound 3.16 µM): 35 nM | IC50 (second compound 10 µM): < 31.6 nM | viability, T/C [1]: 81.3% | viability, T/C [2]: 73.1% | viability, T/C [3]: 71.7% | viability, T/C [4]: 35% | viability, T/C [5]: 25.7% | viability, T/C [6]: 17.6% | viability, T/C [7]: 88.2% | viability, T/C [8]: 85.7% | viability, T/C [9]: 59.6% | viability, T/C [10]: 34.1% | viability, T/C [11]: 25.6% | viability, T/C [12]: 16.6% | viability, T/C [13]: 71.5% | viability, T/C [14]: 88.2% | viability, T/C [15]: 47.8% | viability, T/C [16]: 35.2% | viability, T/C [17]: 24.7% | viability, T/C [18]: 16.2% | viability, T/C [19]: 71.7% | viability, T/C [20]: 65.5% | viability, T/C [21]: 45.4% | viability, T/C [22]: 25.4% | viability, T/C [23]: 16.4% | viability, T/C [24]: 9.51% | viability, T/C [25]: 52% | viability, T/C [26]: 28.9% | viability, T/C [27]: 11.3% | viability, T/C [28]: 5.76% | viability, T/C [29]: 3.99% | viability, T/C [30]: 3.21% | viability, T/C [31]: 31.2% | viability, T/C [32]: 16.5% | viability, T/C [33]: 8.68% | viability, T/C [34]: 2.7% | viability, T/C [35]: 2.23% | viability, T/C [36]: 2.03%

CC1COCCN1c1cc(C2(S(C)(=N)=O)CC2)nc(-c2ccnc3[nH]ccc23)n1 (stereo not drawn) + Cc1[nH]c2ccc(F)cc2c1-c1nc2c3cccnc3c3ncccc3c2[nH]1
IC50 (second compound 0.0316 µM): > 10000 nM | IC50 (second compound 0.1 µM): 8740 nM | IC50 (second compound 0.316 µM): > 10000 nM | IC50 (second compound 1 µM): 4980 nM | IC50 (second compound 3.16 µM): 822 nM | IC50 (second compound 10 µM): < 31.6 nM | viability, T/C [1]: 85.5% | viability, T/C [2]: 83.7% | viability, T/C [3]: 101% | viability, T/C [4]: 81.8% | viability, T/C [5]: 78.5% | viability, T/C [6]: 55.6% | viability, T/C [7]: 90% | viability, T/C [8]: 91.8% | viability, T/C [9]: 82% | viability, T/C [10]: 94.8% | viability, T/C [11]: 61.8% | viability, T/C [12]: 48.5% | viability, T/C [13]: 94.5% | viability, T/C [14]: 97.3% | viability, T/C [15]: 65.4% | viability, T/C [16]: 69.5% | viability, T/C [17]: 84.5% | viability, T/C [18]: 49.6% | viability, T/C [19]: 100% | viability, T/C [20]: 81.4% | viability, T/C [21]: 87.3% | viability, T/C [22]: 86.2% | viability, T/C [23]: 57.7% | viability, T/C [24]: 38.1% | viability, T/C [25]: 65.2% | viability, T/C [26]: 71% | viability, T/C [27]: 56.2% | viability, T/C [28]: 47.8% | viability, T/C [29]: 31.9% | viability, T/C [30]: 10.4% | viability, T/C [31]: 41.6% | viability, T/C [32]: 41% | viability, T/C [33]: 49.8% | viability, T/C [34]: 29.5% | viability, T/C [35]: 18.1% | viability, T/C [36]: 6.17%

COc1ccc([C@@H](O)c2cc(-c3ncnc4cc(N5CCOCC5)ccc34)c(F)cc2Cl)nn1 + Cc1[nH]c2ccc(F)cc2c1-c1nc2c3cccnc3c3ncccc3c2[nH]1
IC50 (second compound 0.0316 µM): > 10000 nM | IC50 (second compound 0.1 µM): > 10000 nM | IC50 (second compound 0.316 µM): > 10000 nM | IC50 (second compound 1 µM): > 10000 nM | IC50 (second compound 3.16 µM): 432 nM | IC50 (second compound 10 µM): < 31.6 nM | viability, T/C [1]: 101% | viability, T/C [2]: 91.3% | viability, T/C [3]: 102% | viability, T/C [4]: 73.9% | viability, T/C [5]: 76.3% | viability, T/C [6]: 63.8% | viability, T/C [7]: 107% | viability, T/C [8]: 101% | viability, T/C [9]: 97.9% | viability, T/C [10]: 84.9% | viability, T/C [11]: 72% | viability, T/C [12]: 61.1% | viability, T/C [13]: 87.8% | viability, T/C [14]: 93% | viability, T/C [15]: 73.8% | viability, T/C [16]: 93.7% | viability, T/C [17]: 75.3% | viability, T/C [18]: 60.6% | viability, T/C [19]: 86.5% | viability, T/C [20]: 88.5% | viability, T/C [21]: 94.7% | viability, T/C [22]: 97.1% | viability, T/C [23]: 88.2% | viability, T/C [24]: 57.4% | viability, T/C [25]: 75.7% | viability, T/C [26]: 68.6% | viability, T/C [27]: 47.2% | viability, T/C [28]: 42.8% | viability, T/C [29]: 33.2% | viability, T/C [30]: 15.9% | viability, T/C [31]: 44.8% | viability, T/C [32]: 47.4% | viability, T/C [33]: 33.6% | viability, T/C [34]: 26.3% | viability, T/C [35]: 19.6% | viability, T/C [36]: 21.1%
